According to patent publication US20070293512A1, “Condensed Pyrimidine Deriviative and Xanthine Oxidase Inhibitor” (priority 2004, published 2007):
pIC50: −log10 of the molar value. Where a name gives a salt, the structure may show the parent alone.

Key:
[1] = test system: in-plasma uric acid value; assay: In vivo test: in-plasma uric acid value-inhibition after single oral administration to mouse; details: ICR mouse, blood one hour after administration; for In Vivo (%) TMX-67 (0.3 mg/kg): activity value relative to TMX-67 (0.3 mg/kg), single oral 0.3 mg/kg; for In Vivo (%) allopurinol (3 mg/kg): activity value relative to allopurinol (3 mg/kg), single oral 3 mg/kg
Experimental: The xanthine oxidase inhibiting action was. further confirmed in vivo tests by measuring the uric acid concentration in a plasma obtained from mouse into which the compound of the invention had been orally administered. See Example 51, Tables 11 and 12.
Pharmacological Experiment 2 (In Vivo Test)
The test compound suspended in 1% methylcellulose solution in an amount of 0.3 mg/kg or 3 mg/kg was administered to unfasted ICR mouse (7 W) by forced single oral administration. The blood was collected from main artery from the mouse under etherization after one hour from the administration. The plasma was separated from the collected blood in the conventional manner. The plasma was then subjected to measurement of uric acid value by the enzyme method by means of an automatic analytical apparatus (7060E), to obtain an in-plasma uric acid value-inhibition ratio in the test sample-administered group as compared with a ratio.obtained in the normal group.
Based on the obtained in-plasma uric acid inhibition ratio, activity values (%) relative to activity values obtained in the simultaneously conducted tests using TMX-67 (0.3 mg/kg) or allopurinol (3 mg/kg).

[2] = biological target: T1, Cow milk Xanthine Oxidase (Bos taurus, UniProt P80457); assay: Xanthine oxidase inhibition, in vitro (oxidation of xanthine, absorbance at 290 nm); format: biochemical; details: xanthine 250 μM, 50 mM phosphate buffer pH 7.5, 30° C., 10 minutes
T1 construct: Cow milk Xanthine Oxidase (Roche); purchased Roche; host or cells: cow milk (natural source)
T1 sequence (P80457 whole entry): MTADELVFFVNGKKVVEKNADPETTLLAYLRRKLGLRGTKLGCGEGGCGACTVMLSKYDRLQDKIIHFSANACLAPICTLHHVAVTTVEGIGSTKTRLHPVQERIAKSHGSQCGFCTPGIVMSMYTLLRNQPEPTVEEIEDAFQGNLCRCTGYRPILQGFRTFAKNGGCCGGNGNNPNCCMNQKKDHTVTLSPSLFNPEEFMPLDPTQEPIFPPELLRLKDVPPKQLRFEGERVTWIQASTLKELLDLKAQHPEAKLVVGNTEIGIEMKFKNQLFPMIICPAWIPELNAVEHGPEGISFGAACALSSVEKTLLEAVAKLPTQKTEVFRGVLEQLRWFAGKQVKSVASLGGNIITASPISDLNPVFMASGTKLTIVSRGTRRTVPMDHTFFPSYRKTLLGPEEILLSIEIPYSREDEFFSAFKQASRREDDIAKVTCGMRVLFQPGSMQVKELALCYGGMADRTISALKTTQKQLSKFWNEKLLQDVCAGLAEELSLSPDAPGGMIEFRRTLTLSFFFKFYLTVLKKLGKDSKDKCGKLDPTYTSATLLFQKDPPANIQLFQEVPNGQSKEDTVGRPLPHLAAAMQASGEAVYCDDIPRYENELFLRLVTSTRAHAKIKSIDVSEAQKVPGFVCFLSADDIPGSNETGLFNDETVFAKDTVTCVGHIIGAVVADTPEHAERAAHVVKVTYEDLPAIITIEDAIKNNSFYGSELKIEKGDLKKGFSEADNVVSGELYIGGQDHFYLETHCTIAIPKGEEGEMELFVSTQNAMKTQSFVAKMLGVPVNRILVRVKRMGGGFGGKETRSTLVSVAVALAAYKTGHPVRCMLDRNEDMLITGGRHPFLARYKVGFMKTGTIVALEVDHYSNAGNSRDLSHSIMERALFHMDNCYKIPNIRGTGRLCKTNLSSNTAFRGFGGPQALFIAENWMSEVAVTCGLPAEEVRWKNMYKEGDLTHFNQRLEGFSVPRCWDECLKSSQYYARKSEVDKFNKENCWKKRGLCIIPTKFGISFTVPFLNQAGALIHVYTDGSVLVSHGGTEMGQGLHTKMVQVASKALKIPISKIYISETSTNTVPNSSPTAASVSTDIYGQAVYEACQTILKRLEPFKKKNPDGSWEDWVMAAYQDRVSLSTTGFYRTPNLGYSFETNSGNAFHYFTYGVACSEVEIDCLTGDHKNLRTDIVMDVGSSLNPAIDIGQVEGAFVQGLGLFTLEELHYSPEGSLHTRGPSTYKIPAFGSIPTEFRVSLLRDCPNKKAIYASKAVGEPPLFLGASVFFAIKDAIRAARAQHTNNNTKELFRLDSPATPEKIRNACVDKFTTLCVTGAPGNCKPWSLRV
Experimental: The xanthine oxidase inhibiting action (in vitro test) of the compound of the invention was confirmed by measuring inhibition of oxidation of xanthine by xanthine oxidase, as described in Example 50. As is clear from Tables 11 and 12, the compounds of the invention show excellent xanthine oxidase inhibiting action.
Pharmacological Experiment 1 (In Vitro Measuring Method)
1. Preparation of Test Sample
The test compound was dissolved in dimethylsulfoxide and diluted with 50 mM phosphate buffer (pH 7.5), to give a solution of a predetermined concentration.
125 μL of each of the solutions of the test compound having different concentrations was added to 1 mL of a solution of Xanthine (SIGMA, 250 μM) in the 50 mM phosphor buffer (pH 7.5). The mixture was then pre-incubated at 30° C. for 5 min. Subsequently, to the pre-incubated mixture was added 125 μL of Cow milk Xanthine Oxidase (Roche) diluted with the 50 mM phosphate buffer (pH 7.5) to 70 mU/mL, and the mixture was subjected to reaction at 30° C. for 10 minutes. Then, 1N hydrochloric acid, (200 μL) was added to the reaction mixture to terminate the reaction. Subsequently, absorbance at OD 290 nm was measured by means of a spectrophotometer (Shimadzu UV-160A)., to obtain a inhibition ratio. The measured inhibition ration was used to obtain […]
The inhibition ratio was calculated according to the following formula: Inhibition ratio (%)=[1−(B−C)/(A−C)]×100 • A: absorbance of control • B: absorbance measured on a sample containing test compound • C: absorbance of blank (Test Results)

Molecule | pIC50 [2] | In Vivo (%) TMX-67 (0.3 mg/kg) [1] [%] | further results
2-[3-Cyano-4-(2-fluorophenoxy)phenyl]-4-hydroxythiazolo[5,4-d]pyrimidine potassium salt [Example 46] | 7.75 | 223 | 
2-[3-Cyano-4-(4-fluorophenoxy)phenyl]-4-hydroxythiazolo[5,4-d]pyrimidine potassium salt [Example 37] |  | 107 | 
2-[4-(4-Chlorophenoxy)-3-cyanophenyl]-4-hydroxythiazolo[5,4-d]pyrimidine potassium salt [Example 24] | 7.73 | 28 | 
O=[N+]([O-])c1cc(-c2nc3c([O-])ncnc3s2)ccc1Oc1ccccc1.[K+] [Example 8, 2-(3-Nitro-4-phenoxyphenyl)-4-hydroxythia-zolo[5,4-d]pyrimidine potassium salt] |  | 125 | 
O=[N+]([O-])c1cc(-c2nc3c(O)ncnc3s2)ccc1Oc1ccc(Cl)c2ccccc12 [Example 11, 2-[4-(4-Chloro-1-naphthoxy)-3-nitrophenyl]-4-hydroxythiazolo[5,4-d]pyrimidine] | 7.28 |  | 
O=[N+]([O-])c1cc(-c2nc3c([O-])ncnc3s2)ccc1Oc1ccc(F)cc1.[K+] [Example 13, 2-[4-(4-Fluorophenoxy)-3-nitrophenyl]-4-hydroxythiazolo[5,4-d]pyrimidine potassium salt] |  | 141 | 
O=[N+]([O-])c1cc(-c2nc3c(O)ncnc3s2)ccc1Oc1ccc(C(F)(F)F)cc1 [Example 16, 4-Hydroxy-2-[3-nitro-4-[4-(trifluoromethyl)-phenoxy]phenyl]thiazolo[5,4-d]pyrimidine] | 7.28 |  | 
O=[N+]([O-])c1cc(-c2nc3c(O)ncnc3s2)ccc1Oc1ccccc1F [Example 21, 2-[4-(2-Fluorophenoxy)-3-nitrophenyl]-4-hydroxythiazolo[5,4-d]pyrimidine] | 8.27 |  | 
O=C([O-])c1ccc(Oc2ccc(-c3nc4c([O-])ncnc4s3)cc2[N+](=O)[O-])cc1.[K+].[K+] [Example 27, 2-[4-(4-Carboxyphenoxy)-3-nitrophenyl]-4-hydroxythiazolo[5,4-d]pyrimidine dipotassium salt] |  |  | In Vivo (%) allopurinol (3 mg/kg) [1]: 36%
O=[N+]([O-])c1cc(-c2nc3c(O)ncnc3s2)ccc1Oc1ccc(Oc2ccccc2)cc1 [Example 28, 2-[3-Nitro-4-(4-phenoxyphenoxy)phenyl]-4-hydroxythiazolo[5,4-d]pyrimidine] | 7.17 |  | 
O=[N+]([O-])c1cc(-c2nc3c(O)ncnc3s2)ccc1Oc1cccnc1.[K] [Example 33, 4-Hydroxy-2-[3-nitro-4-(3-pyridyloxy)-phenyl]thiazolo[5,4-d)pyrimidine potassium salt] |  | 48 | 
O=[N+]([O-])c1cc(-c2nc3c(O)ncnc3s2)ccc1Oc1ccc(O)cc1 [Example 35, 4-Hydroxy-2-[4-(4-hydroxyphenoxy)-3-nitro-phenyl]thiazolo[5,4-d]pyrimidine] |  | 61 | 
COc1ncnc2sc(-c3ccc(Oc4ccc(F)cc4)c(C#N)c3)nc12 [Example 40, 2-[3-Cyano-4-(4-fluorophenoxy)phenyl]-4-methoxythiazolo[5,4-d]pyrimidine] |  | 30 | In Vivo (%) allopurinol (3 mg/kg) [1]: 107%
N#Cc1cc(-c2nc3c([O-])ncnc3s2)ccc1Sc1ccc(F)cc1.[K+] [Example 43, 2-[3-Cyano-4-(4-fluorophenylthio)phenyl]-4-hydroxythiazolo[5,4-d]pyrimidine potassium salt] |  | 185 | 

More lines, in order of rising pIC50 [2], values ahead:

pIC50 [2] | Molecule | In Vivo (%) TMX-67 (0.3 mg/kg) [1] [%] | further results
6.92 | CC(C)c1ccc(Oc2ccc(-c3nc4c(O)ncnc4s3)cc2[N+](=O)[O-])cc1 [Example 30, 4-Hydroxy-2-[4-(4-isopropylphenoxy)-3-nitro-phenyl]thiazolo[5,4-d]pyrimidine] |  | 
7.43 | O=[N+]([O-])c1cc(-c2nc3c(O)ncnc3s2)ccc1Oc1ccc(-c2ccccc2)cc1 [Example 31, 4-Hydroxy-2-[3-nitro-4-(4-phenylphenoxy)-phenyl]thiazolo[5,4-d]pyrimidine] |  | 
7.52 | O=[N+]([O-])c1cc(-c2nc3c(O)ncnc3o2)ccc1Sc1ccc(Cl)cc1 [Example 6, 2-[4-(4-Chlorophenylthio)-3-nitrophenyl]-4-hydroxyoxazolo[5,4-d]pyrimidine] |  | melting point: > 250 °C
7.57 | N#Cc1cc(-c2nc3c(O)ncnc3s2)ccc1Oc1ccc(Cl)cc1 [Example 23, 2-[4-(4-Chlorophenoxy)-3-cyanophenyl]-4-hydroxythiazolo[5,4-d]pyrimidine] |  | 
7.61 | O=[N+]([O-])c1cc(-c2nc3c(O)ncnc3s2)ccc1Nc1ccccc1 [Example 29, 2-(3-Nitro-4-phenylaminophenyl)-4-hydroxy-thiazolo[5,4-d]pyrimidine] |  | 
7.65 | 2-[4-(4-Chlorophenylthio)-3-cyanophenyl]-4-hydroxythiazolo[5,4-d]pyrimidine potassium salt [Example 10] | 84 | 
7.69 | O=[N+]([O-])c1cc(-c2nc3c(O)ncnc3s2)ccc1Oc1ccc(Cl)cc1 [Example 5, 2-[4-(4-Chlorophenoxy)-3-nitrophenyl]-4-hydroxythiazolo[5,4-d]pyrimidine] |  | melting point: 304 to 306 °C (dec.)
7.72 | O=[N+]([O-])c1cc(-c2nc3c(O)ncnc3s2)ccc1Sc1ccc(Cl)cc1 [Example 3, 2-[4-(4-Chlorophenylthio)-3-nitrophenyl]-4-hydroxythiazolo[5,4-d]pyrimidine potassium salt] |  | 
7.73 | COC(=O)c1ccc(Oc2ccc(-c3nc4c(O)ncnc4s3)cc2[N+](=O)[O-])cc1 [Example 25, 4-Hydroxy-2-[4-(4-methoxycarbonylphenoxy)-3-nitrophenyl]thiazolo[5,4-d]pyrimidine] |  | 
7.73 | O=[N+]([O-])c1cc(-c2nc3c(O)ncnc3s2)ccc1Sc1ccccc1 [Example 4, 4-Hydroxy-2-(3-nitro-4-phenylthiophenyl)thiazolo[5,4-d]pyrimidine] |  | 
7.77 | O=[N+]([O-])c1cc(-c2nc3c(O)ncnc3s2)ccc1Oc1cccc(Cl)c1 [Example 17, 2-[4-(3-Chlorophenoxy)-3-nitrophenyl]-4-hydroxythiazolo[5,4-d]pyrimidine] |  | 
7.84 | N#Cc1cc(-c2nc3c(O)ncnc3s2)ccc1Sc1ccc(Cl)cc1 [Example 9, 2-[4-(4-Chlorophenylthio)-3-cyanophenyl]-4-hydroxythiazolo[5,4-d]pyrimidine] |  | 
7.86 | O=[N+]([O-])c1cc(-c2nc3c(O)ncnc3s2)ccc1Sc1ccc(Cl)cc1 [Example 2, 2-[4-(4-Chlorophenylthio)-3-nitrophenyl]-4-hydroxythiazolo[5,4-d]pyrimidine] |  | 
7.87 | O=[N+]([O-])c1cc(-c2nc3c(O)ncnc3o2)ccc1Oc1ccc(F)cc1 [Example 39, 2-[4-(4-Fluorophenoxy)-3-nitrophenyl]-4-hydroxyoxazolo[5,4-d]pyrimidine potassium salt] |  | 
7.97 | N#Cc1cc(-c2nc3c([O-])ncnc3s2)ccc1Oc1ccccc1.[K+] [Example 49, 2-(3-Cyano-4-phenoxyphenyl)-4-hydroxy-thiazolo[5,4-d]pyrimidine potassium salt] | 140 | 
8.01 | O=C(O)c1ccc(Oc2ccc(-c3nc4c(O)ncnc4s3)cc2[N+](=O)[O-])cc1 [Example 26, 2-[4-(4-Carboxyphenoxy)-3-nitrophenyl]-4-hydroxythiazolo[5,4-d]pyrimidine] |  | 
8.03 | O=[N+]([O-])c1cc(-c2nc3c(O)ncnc3s2)ccc1Oc1ccc(F)cc1 [Example 12, 2-[4-(4-Fluorophenoxy)-3-nitrophenyl]-4-hydroxythiazolo[5,4-d]pyrimidine] |  | melting point: 282 to 284 °C (dec.)
8.06 | O=[N+]([O-])c1cc(-c2nc3c(O)ncnc3s2)ccc1Oc1ccccc1 [Example 7, 4-Hydroxy-2-(3-nitro-4-phenoxyphenyl)-thiazolo[5,4-d]pyrimidine] |  | melting point: 278 to 281 °C (dec.)
8.07 | COc1ccc(Oc2ccc(-c3nc4c(O)ncnc4s3)cc2[N+](=O)[O-])cc1 [Example 14, 2-[4-(4-Methoxyphenoxy)-3-nitrophenyl]-4-hydroxythiazolo[5,4-d]pyrimidine] |  | 
